# Assays:
# human UDG = human UDG (Homo sapiens, UniProt P13051); assay: Differential scanning fluorimetry (nanoDSF), intrinsic tryptophan fluorescence and scattering; type: binding; set-up: Full-length UDG at 14 μM in 137 mM NaCl
# Experimental: The data for thermophoresis was recorded at 20° C. using the blue LED at 20% and IR-Laser at 40%. The isotherm derived from the raw data and fitted according to the law of mass action. […] Then 2 μL of 10× Sypro dye and 2 μL of ddH20 (Applied biosystems cat #4461141) were added. Monitoring of fluorescence took place for 2 hr (Bioraid CFX96, Hex filter, 25-97° C., 1.6° C./2 min). Negative (−) derivative RFU raw data and plots from the machine were obtained and analyzed. […] Melting temperature (Tm) value was taken directly from the midpoint on the −dRFU/dt vs. temperature graph. Each point on the graph represents an average of three data sets. Y error bars represent the standard deviation.
# Differential scanning fluorimetry (DSF) measurements were performed on a Prometheus NT.48 instrument (NanoTemper Technologies, Munich, Germany). […] The capillaries were filled with 10 μL sample and placed on the sample holder. A temperature gradient of 1° C.·min^−1 from 25 to 90° C. was applied and the intrinsic protein fluorescence at 330 and 350 nm was recorded. Additional aggregation onset temperatures are detected via back-reflection light scattering. […] Therefore, analysis of single wavelength was used to determine the melting temperature.
# [1] = test system: uracil removal (U:G base pair) in MCF-7 cells; assay: Host-cell reactivation assay, uracil removal from reporter plasmid, MCF-7; type: cell-based, human
# Experimental: A: MCF-7 cells were seeded at 50,000 cells per well in a 12-well plate. B: HAP cells (wild type or UNG gene knockout) were seeded at 75,000 cells per well in a 6-well plate. […] After 24 hours, cells were dissociated by trypsinization and analyzed by flow cytometry using an Atune NxT flow cytometer. Gating and compensation were determined by transfection of single-color controls. Reporter expression was calculated for each dose of ATA as previously described in publications and normalized to DMSO treatment.
# Panel A: 1.25 μM and panel B: 2.5 μM. Reporter expression was calculated for each dose of ATA as described in prior publications and normalized to DMSO treatment.
# Removal of uracil in cells was measured using a reporter plasmid containing a dU:dG base pair (referred to as BFP_U), as described previously. […] The reciprocal of BFP_U reporter expression was calculated for each experimental condition. […] This creates a premature stop codon, completely abolishing fluorescence. Removal of thymidine followed by insertion of dC opposite dG restores reporter fluorescence.
# Human breast cancer MCF-7 cells were seeded at 50,000 cells per well in a 12-well plate, while HAP cells (wild type or UNG knockout) were seeded at 75,000 cells per well in a 6-well plate. […] After 24 hours, cells were dissociated by trypsinization and analyzed by flow cytometry using an Atune NxT flow cytometer. […]
# human UDG, sequence (P13051 whole entry): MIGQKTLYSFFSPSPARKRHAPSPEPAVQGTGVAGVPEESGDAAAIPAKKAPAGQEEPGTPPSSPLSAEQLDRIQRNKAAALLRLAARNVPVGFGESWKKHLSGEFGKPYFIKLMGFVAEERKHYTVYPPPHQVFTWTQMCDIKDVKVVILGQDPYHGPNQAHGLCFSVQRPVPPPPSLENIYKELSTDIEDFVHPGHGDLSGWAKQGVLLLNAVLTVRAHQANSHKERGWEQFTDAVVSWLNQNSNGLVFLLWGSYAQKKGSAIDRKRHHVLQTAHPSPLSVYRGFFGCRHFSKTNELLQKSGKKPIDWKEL
smiles,measurement,setting,value
"O=C(O)C1=CC(=C(c2ccc(O)c(C(=O)O)c2)c2ccc(O)c(C(=O)O)c2)C=CC1=O [ATA, aurintricarboxylic acid]",protein aggregation onset (scattering),human UDG; UDG in the presence of ATA vs UDG alone,induced protein aggregation at lower temperatures than UDG alone
same,mean melting temperature of UDG in the presence of ATA,"human UDG; nanoDSF, 330 nm, UDG alone 53.5 °C",51 °C
same,uracil removal in MCF-7 cells,"[1]; ATA 2.5 μM, 24 hr",significantly inhibited uracil removal
same,uracil removal in MCF-7 cells at increasing concentrations,[1]; ATA up to 10 μM vs 2.5 μM,not statistically different from the 2.5 μM dose
